Data on 6 compounds can be found in ChEMBL document CHEMBL1201862, “PubChem BioAssay data set” (2004).

Assay [1] addresses Protein phosphatase methylesterase 1 (Homo sapiens, UniProt Q9Y570). Kind of assay: inhibition of PME-1 probe labeling – gel-based ABPP, IC50, set 1, late-stage follow-up (AID 463130). It is filed as functional.
Another assay deals with T1, X-box-binding protein 1 (Homo sapiens, UniProt P17861).
T1 sequence (P17861 whole entry): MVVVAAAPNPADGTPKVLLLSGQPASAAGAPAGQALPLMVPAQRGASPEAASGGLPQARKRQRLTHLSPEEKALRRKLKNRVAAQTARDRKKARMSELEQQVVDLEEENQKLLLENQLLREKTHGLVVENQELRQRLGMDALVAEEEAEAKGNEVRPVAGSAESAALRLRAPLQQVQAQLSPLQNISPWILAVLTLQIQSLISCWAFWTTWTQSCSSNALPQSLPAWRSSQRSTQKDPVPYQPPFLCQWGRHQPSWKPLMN
Type of assay: functional, Cricetulus griseus.

The target in assay [2] is DNA damage-inducible transcript 3 protein (Mus musculus, UniProt P35639). Type of assay: functional, Cricetulus griseus.
DNA damage-inducible transcript 3 protein, sequence (P35639 whole entry): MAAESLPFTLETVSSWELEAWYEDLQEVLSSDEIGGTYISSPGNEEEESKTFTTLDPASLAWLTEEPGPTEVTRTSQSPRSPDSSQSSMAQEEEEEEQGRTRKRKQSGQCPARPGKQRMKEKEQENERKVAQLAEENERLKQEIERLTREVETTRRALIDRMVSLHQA
The next assay relates to T-cell. Kind of assay: loss of vesicle association with mouse CD8+ T cells – mouse 2C CD8+ T cells, flow cytometry, dose response (AID 485284). Type of assay: functional. For orientation: In flow cytometry, cells or beads pass a laser one at a time.
Assay [3] deals with T2, Runt-related transcription factor 1/Core-binding factor subunit beta (Homo sapiens, UniProt Q01196+Q13951). Kind of assay: disruptors of Runt domain/CBFb-SMMHC interaction – biochemical, FRET, Cerulean-Runt, Venus-CBFb-SMMHC, uHTS, […] (AID 1434). Type of assay: protein assay.
T2 sequence (Q01196 whole entry, the tested form may be a part): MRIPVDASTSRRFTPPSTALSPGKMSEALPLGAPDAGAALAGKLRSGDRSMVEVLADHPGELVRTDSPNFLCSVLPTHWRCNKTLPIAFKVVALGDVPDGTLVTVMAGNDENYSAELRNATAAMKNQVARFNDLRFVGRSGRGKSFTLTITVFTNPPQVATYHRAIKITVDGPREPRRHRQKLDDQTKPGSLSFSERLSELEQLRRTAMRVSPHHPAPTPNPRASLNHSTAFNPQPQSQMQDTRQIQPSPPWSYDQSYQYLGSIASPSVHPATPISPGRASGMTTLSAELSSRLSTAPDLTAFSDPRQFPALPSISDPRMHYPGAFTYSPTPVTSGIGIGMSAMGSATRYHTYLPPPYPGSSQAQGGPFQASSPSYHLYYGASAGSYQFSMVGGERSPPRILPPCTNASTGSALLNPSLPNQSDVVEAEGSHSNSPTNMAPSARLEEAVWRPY
T2 sequence (Q13951 whole entry, the tested form may be a part): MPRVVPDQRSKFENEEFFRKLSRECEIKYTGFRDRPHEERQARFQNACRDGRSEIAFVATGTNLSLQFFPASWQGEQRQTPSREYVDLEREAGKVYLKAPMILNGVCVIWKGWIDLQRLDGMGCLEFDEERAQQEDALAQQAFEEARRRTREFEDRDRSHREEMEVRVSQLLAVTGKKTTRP
Assay [4] deals with Induced myeloid leukemia cell differentiation protein Mcl-1 (Homo sapiens, UniProt Q07820). It is filed as functional.
Induced myeloid leukemia cell differentiation protein Mcl-1, sequence (Q07820 whole entry, the tested form may be a part): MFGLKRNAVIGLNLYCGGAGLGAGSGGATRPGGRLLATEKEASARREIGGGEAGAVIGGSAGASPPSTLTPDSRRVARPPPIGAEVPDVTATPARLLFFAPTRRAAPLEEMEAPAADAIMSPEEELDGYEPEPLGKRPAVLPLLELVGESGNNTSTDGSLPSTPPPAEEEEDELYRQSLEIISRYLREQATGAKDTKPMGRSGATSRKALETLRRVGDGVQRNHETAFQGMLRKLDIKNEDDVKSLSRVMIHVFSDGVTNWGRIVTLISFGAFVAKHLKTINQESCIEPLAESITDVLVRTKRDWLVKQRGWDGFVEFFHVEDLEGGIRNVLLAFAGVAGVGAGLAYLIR
The target of assay [5] is T2, Runt-related transcription factor 1/Core-binding factor subunit beta. Description: Runt domain/CBFb-SMMHC interaction disruptors – biochemical, TR-FRET (AID 1438). It is filed as protein assay.
Assay [6] concerns the target T3, RNA-binding protein pos-1 (Caenorhabditis elegans, UniProt G5EF15).
T3 sequence (G5EF15 whole entry): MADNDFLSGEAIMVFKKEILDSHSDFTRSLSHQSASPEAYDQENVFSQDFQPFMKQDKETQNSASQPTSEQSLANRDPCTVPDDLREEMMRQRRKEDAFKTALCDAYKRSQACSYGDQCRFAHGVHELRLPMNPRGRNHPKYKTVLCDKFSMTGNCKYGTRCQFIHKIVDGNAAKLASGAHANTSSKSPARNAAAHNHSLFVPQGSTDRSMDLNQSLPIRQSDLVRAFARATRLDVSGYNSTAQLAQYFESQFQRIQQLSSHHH
Description: disruptors of C. elegans POS-1 RNA interaction – biochemical, fluorescence polarization, dose response (AID 1964).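 Further: purified POS-1 fused to maltose binding protein made in E. coli; potency of compounds blocking POS-1 binding to fluorescent RNA.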 A general note: Polarisation of emitted light reports the rotation of a fluorescent probe.

The target of assay [7] is T4, Zinc finger protein mex-5 (Caenorhabditis elegans, UniProt Q9XUB2).
T4 sequence (Q9XUB2 whole entry): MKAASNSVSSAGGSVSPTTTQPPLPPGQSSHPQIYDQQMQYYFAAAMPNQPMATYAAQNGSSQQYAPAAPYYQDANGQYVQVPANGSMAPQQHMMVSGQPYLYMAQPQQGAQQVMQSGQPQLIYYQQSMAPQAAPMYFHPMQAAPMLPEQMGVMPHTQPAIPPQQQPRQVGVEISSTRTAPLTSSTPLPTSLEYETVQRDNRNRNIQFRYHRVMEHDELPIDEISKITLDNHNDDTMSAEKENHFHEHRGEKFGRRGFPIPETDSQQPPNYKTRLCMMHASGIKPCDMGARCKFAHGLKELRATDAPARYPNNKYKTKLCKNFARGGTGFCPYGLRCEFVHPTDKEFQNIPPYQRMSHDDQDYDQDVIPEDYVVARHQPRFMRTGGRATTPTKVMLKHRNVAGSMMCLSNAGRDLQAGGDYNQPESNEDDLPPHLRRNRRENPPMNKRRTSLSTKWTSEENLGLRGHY
Kind of assay: potency of MEX-5 RNA-binding blockers – biochemical, C. elegans, fluorescence polarization, dose response (AID 1960).

Assay [8] in a line: toxicity toward cultured mammalian cells – cell-based, plate reader, cherry-pick samples, cytotoxicity control, dose response (AID 504397). It is filed as functional.
Assay [9] can be described thus: Intein inhibitors as potential Tuberculosis drugs, a cytotoxicity screen. [Related pubchem assays (depositor defined):AID2221, AID2223, AID434968, AID435010, AID449749, AID449750, AID489010]. It is filed as functional.
The target of assay [10] is T5, Microphthalmia-associated transcription factor (Homo sapiens, UniProt O75030).
T5 sequence (O75030 whole entry): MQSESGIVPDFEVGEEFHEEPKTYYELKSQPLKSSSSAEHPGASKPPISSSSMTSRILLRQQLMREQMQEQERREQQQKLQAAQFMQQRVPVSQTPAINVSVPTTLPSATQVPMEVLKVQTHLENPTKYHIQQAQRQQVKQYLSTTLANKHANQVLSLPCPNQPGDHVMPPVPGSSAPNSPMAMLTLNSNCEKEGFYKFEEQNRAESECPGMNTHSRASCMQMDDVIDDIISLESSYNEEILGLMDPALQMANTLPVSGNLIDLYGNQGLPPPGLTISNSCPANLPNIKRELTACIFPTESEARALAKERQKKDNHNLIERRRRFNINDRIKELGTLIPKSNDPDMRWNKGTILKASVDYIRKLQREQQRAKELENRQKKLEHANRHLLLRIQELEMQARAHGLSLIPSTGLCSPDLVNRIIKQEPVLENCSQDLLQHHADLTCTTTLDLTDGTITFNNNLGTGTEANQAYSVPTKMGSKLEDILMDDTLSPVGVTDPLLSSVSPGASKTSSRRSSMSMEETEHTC
Kind of assay: reducers of TRPM1 reporter luminescence, concentration series – cell-based, SK-MEL-5, cherry-picked, set 3, MITF inhibitor project, dose response (AID 493073).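 Further: SK-MEL-5 melanoma cells with luciferase driven by the MITF target TRPM1 promoter.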 Type of assay: functional.

Assay [11] has as its system BJ. Description: cells. Type of assay: functional, cell-based. Particulars: Homo sapiens.
Another assay has as its target T6, Protein RecA (Mycobacterium tuberculosis, UniProt P9WHJ3).
T6 sequence (P9WHJ3 whole entry): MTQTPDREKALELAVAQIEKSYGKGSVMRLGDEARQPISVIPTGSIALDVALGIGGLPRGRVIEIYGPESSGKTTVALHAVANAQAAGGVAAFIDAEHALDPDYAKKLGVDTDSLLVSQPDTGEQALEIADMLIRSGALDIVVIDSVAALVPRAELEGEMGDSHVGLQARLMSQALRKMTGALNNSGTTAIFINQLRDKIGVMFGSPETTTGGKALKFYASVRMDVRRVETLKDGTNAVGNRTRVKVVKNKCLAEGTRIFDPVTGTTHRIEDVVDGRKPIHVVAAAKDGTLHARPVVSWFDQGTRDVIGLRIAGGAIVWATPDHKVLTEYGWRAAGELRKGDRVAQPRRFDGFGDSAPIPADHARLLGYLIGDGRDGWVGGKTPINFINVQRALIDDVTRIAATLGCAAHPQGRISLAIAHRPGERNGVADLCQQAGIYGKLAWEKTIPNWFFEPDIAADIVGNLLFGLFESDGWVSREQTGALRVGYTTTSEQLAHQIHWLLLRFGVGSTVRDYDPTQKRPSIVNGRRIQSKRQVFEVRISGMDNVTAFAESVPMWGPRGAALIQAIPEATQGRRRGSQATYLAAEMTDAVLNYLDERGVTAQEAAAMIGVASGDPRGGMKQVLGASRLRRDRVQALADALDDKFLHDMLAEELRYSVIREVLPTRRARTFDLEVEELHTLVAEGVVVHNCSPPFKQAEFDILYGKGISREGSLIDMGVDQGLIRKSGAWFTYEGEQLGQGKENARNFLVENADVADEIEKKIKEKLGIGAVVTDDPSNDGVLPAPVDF
Kind of assay: Fluorescence Cell-Free Homogeneous Dose Retest to Identify Inhibitors of RecA-Intein Splicing Activity. [Related pubchem assays (depositor defined):AID2097, AID2223, AID489010, AID492950]. Type of assay: functional.

In assay [12] the test system is BJ. Description: BJ-TERT-LT-ST fibroblast viability loss – cell-based, RAS-independent, luminescence, dose response (AID 1935).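 Further: BJ fibroblasts immortalized with TERT plus LT and ST oncogenes.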 It is filed as functional. Particulars: Homo sapiens.
Assay [13] relates to BJ. Description: BJ-TERT fibroblast viability loss – cell-based, RAS-independent, luminescence, dose response (AID 1933). Type of assay: functional. Particulars: Homo sapiens.
The target of assay [14] is Glutathione S-transferase omega-1 (Homo sapiens, UniProt P78417). Kind of assay: IC50 of human GSTO1 inhibition by gel ABPP – biochemical, SE-Rh probe, in-gel fluorescence, powder samples, late-stage follow-up (AID 463081). Type of assay: functional.
Glutathione S-transferase omega-1, sequence (P78417 whole entry): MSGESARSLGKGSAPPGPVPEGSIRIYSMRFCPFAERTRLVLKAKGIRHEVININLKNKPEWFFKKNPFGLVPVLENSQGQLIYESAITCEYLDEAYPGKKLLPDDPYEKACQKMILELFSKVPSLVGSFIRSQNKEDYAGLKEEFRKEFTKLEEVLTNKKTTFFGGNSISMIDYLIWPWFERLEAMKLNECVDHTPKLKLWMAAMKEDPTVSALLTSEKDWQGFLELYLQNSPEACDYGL
The target of assay [15] is T7, Replicative DNA helicase DnaB (Mycobacterium tuberculosis, UniProt P9WMR3).
T7 sequence (P9WMR3 whole entry): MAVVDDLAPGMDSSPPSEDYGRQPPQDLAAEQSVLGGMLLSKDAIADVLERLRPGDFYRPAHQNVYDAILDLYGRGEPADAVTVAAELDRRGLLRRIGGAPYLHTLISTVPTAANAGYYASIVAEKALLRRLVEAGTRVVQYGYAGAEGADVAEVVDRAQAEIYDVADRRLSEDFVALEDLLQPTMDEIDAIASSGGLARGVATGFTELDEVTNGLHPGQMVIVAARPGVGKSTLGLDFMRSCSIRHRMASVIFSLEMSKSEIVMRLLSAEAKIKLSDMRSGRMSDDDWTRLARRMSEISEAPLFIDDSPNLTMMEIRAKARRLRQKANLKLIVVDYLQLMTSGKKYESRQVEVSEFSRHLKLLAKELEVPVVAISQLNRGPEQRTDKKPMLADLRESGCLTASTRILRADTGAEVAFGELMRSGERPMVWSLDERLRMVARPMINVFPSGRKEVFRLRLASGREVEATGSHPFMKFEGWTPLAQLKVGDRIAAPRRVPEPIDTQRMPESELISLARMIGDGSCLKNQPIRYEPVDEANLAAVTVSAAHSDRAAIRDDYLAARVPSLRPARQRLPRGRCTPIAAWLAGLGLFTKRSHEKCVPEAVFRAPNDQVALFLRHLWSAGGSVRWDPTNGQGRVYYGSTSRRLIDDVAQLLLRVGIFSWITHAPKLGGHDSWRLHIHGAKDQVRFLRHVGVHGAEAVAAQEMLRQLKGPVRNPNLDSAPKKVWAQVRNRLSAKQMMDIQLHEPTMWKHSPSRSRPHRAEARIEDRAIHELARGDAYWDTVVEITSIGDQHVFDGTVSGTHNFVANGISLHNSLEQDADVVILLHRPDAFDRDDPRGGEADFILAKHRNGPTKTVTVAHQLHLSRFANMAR
Description: DnaB intein splicing inhibitors, dose response, biochemical, cell-free fluorescence (AID 449749). Type of assay: functional.

Assay [16] is described as follows: DRD fibroblast viability loss – cell-based, non-viral oncogenic, luminescence, dose response (AID 1934). Type of assay: functional. Particulars: Homo sapiens.

The source made the active and inactive calls.
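Wherever Absolute IC50 (XBP1) is given: confirmatory dose-response counter-screen serving a CHOP assay.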
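Wherever CC50 is given: cells exposed to compound for 72 hours before luminescence readout.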

Protein phosphatase methylesterase 1, sequence (Q9Y570 whole entry): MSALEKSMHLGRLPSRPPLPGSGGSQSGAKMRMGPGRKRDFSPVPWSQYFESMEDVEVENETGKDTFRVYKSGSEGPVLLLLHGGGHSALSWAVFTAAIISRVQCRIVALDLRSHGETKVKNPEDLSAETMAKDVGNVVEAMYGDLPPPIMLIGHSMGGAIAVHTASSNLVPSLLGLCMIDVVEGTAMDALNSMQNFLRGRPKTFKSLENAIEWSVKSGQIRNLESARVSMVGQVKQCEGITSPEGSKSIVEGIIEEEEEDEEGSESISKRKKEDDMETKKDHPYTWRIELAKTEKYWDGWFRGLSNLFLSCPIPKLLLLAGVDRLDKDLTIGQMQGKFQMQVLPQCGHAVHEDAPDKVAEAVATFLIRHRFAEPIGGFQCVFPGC

Broadly, the IC50 is the concentration that gives 50% inhibition. For the compound `COC(=O)N1C(=O)[C@@](CC(C)C)(c2ccccc2)N1C(=O)OC`, the half-maximal inhibitory concentration (IC50) in assay [1] was 0.227 µM (active).

On to `C=CCO/C(O)=C1\C(C)=NC(SCC(=O)Nc2ccccc2)=C(C#N)C1c1ccco1` (centres undefined), for which the “Absolute IC50 (XBP1)” value at X-box-binding protein 1 came out at 10 µM. The “Absolute IC50 (CHOP)” value in [2] turned out to be 10 µM.

What is called EC50 is the concentration needed to bring the measured effect to its halfway point. In the case of `CN(C)C=O.O=C(COC(=O)C12CC3CC(CC(Br)(C3)C1)C2)Nc1cccc(S(=O)(=O)N2CCOCC2)c1`, the EC50 in the assay on T-cell is 4.6 µM (active).

As for `COc1ccc(C(=O)/N=c2\c(C#N)cc3c(=O)n4cccc(C)c4nc3n2Cc2ccco2)cc1`, the concentration for half-maximal inhibition (IC50) in assay [3] was 8.9 µM (active); in assay [4] it was 3.9 µM (active); in assay [5] it was 73.7 µM (inactive). The values for the EC50 in assay [6] and in [7] were 220 µM (active) and > 300 µM (not active), respectively.

As a reminder, the AC50 is the concentration at which the activity in the assay is half-maximal. With `COc1ccccc1/C=C/C=N/NC(=O)CN1CCN(S(=O)(=O)c2ccc(C)cc2)CC1`, the AC50 in assay [8] is 132 µM (active).

As a reminder, the CC50 is the concentration at which the toxic effect on the cells reaches its halfway point. Take `O=C(NC1CCCCC1)C(c1cccnc1)N(C(=O)CCl)c1cccc(Cl)c1` (centres undefined): the cytotoxic concentration (CC50) in assay [9] was 0.82 µM (active). For the same compound, the AC50 in assay [10] is 4.16 µM (active); in assay [15], 3.23 µM (active). For the same compound, the EC50 is 5.05 µM (active) in the assay on BJ [11]; 0.467 µM (active) at Protein RecA; 7.06 µM (inconclusive) with BJ [12]; 0.349 µM (active) in the assay with BJ [13]; 2.77 µM (active) in assay [16]. Also, in [14], the IC50 was 0.038 µM (active).
